Test results reported in patent US20230042509A1, “TREATMENT FOR DISEASES CAUSED BY RNA VIRUSES” (Amerimmune LLC, priority 2021, published 2023).

How the values were obtained:
[1] = in vivo; cited from earlier work
caspase-3 = molecular target: T1, caspase-3 (Homo sapiens, UniProt P42574); assay: Caspase-3 in red blood cells incubated with patient plasma; format: cell-based
T1 construct: EMR suppressed the caspase-3 up-regulation in the COVID-19 plasma incubated samples; endogenous in cells; host or cells: red blood cells of healthy subjects incubated with patient plasma
T1 sequence (P42574 29-277): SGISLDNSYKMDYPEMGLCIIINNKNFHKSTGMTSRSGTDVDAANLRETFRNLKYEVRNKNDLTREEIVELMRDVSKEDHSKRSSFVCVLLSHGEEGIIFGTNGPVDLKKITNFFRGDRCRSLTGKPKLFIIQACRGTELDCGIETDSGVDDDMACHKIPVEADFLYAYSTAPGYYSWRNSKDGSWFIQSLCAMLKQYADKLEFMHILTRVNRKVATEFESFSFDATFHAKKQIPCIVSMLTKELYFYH

caspase-1 = caspase-1 (Homo sapiens, UniProt P29466); assay: Ex vivo stimulation study: active caspase-1 in CD4 T cells after whole blood incubation with caspase inhibitors (Example 9); format: cell-based; conditions: whole blood incubated with inhibitor, 24 hrs later with or without nigericin stimulation
mild COVID-19 = assay: Phase 1 double-blinded placebo-controlled safety and tolerability study in mild-COVID-19 outpatients; format: in vivo, human
Description: A double-blinded, placebo-controlled randomized safety and tolerability study (1:1 active:placebo) was performed in a number symptomatic outpatient mild-COVID-19 patients receiving standard of care therapy. A total of 13 patients were enrolled at a single site in New York City. Treatment involved administering Emricasan (EMR) (or placebo) at 25 mg BID dosing for 14 days, with follow-up for an additional month. […] This study was thus designed to evaluate safety and tolerability, with the primary endpoint being the difference, if any, between treatment-related adverse events (AEs), including severe adverse events (SAEs), if any, in the active (EMR) and placebo groups through day 14. The pharmacokinetics (PK) of EMR has been extensively studied in earlier clinical trials. Accordingly, patients in this Phase 1 study were sampled at the end of the study to confirm that Emricasan pharmacokinetics was not altered in COVID-19 patients. Secondary endpoints included various clinical and laboratory measures and patient reported outcomes (PROs) using a COVID-19-related assessment tool.

Caspase 1 = molecular target: T2, Caspase 1 (Homo sapiens, UniProt P29466); assay: FLICA flow cytometry of active caspase-1 in PBMCs from Emricasan-treated COVID-19(+) whole blood (Example 7); format: cell-based; conditions: 1 μM, 17 hours (overnight) at room temperature on a rocker; 3 samples from COVID-19 patients
T2 sequence (P29466 120-297 limits assumed): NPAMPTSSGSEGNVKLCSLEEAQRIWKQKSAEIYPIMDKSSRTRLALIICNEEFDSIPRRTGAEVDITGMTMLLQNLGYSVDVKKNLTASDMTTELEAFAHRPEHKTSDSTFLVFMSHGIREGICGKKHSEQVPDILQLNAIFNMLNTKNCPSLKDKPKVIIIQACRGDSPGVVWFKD
T2 sequence (P29466 317-404 limits assumed): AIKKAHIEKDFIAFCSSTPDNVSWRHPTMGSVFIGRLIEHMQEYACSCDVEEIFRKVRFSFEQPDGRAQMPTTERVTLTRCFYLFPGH

[2] = test system: PBMCs isolated from COVID-19 patient samples; assay: "Red ring" contaminating RBC layer in PBMC preparation; format: cell-based, human; conditions: 1 micromolar, room temperature, 17 hours
Description: One of the observations made during the preparation of peripheral blood mononuclear cells (PBMC) for some of the experiments described herein was the presence of a contaminating red blood cell (RBC) layer in the PBMC layer, which was referred to as a “red ring”. This “red ring” was present in all COVID-19 patient samples, with no difference between critically ill patients and those who were only on supportive care outside the ICU setting (see FIG. 12A).
When PBMCs isolated from COVID-19 patient samples were incubated with Emricasan (1 micromolar) at room temperature for 17 hours, a decrease in the “red ring” was observed.

Row | SMILES | safety and tolerance profile in humans [1] | caspase-3 up-regulation in RBCs (caspase-3; COVID-19 plasma incubated samples) | baseline caspase-3 expression levels in RBCs (caspase-3; influenza-plasma incubated samples) | T-helper cell caspase-1 expression in COVID-19 samples (caspase-1) | T-helper cell caspase-1 upregulation in healthy subjects (caspase-1) | serious adverse events (mild COVID-19; 25 mg BID for 14 days) | safety and tolerability (mild COVID-19; 25 mg BID for 14 days, 2 weeks of dosing and week 10 follow up, compared to placebo) | resolution of symptoms most commonly associated with mild COVID-19 (cough, headache, fatigue) (mild COVID-19; 25 mg BID for 14 days, at day 7, continued through Day 45, patients who completed treatment) | caspase biomarkers (mild COVID-19; all subjects in the EMR treatment group) | samples with inhibition of nigericin-induced Caspase-1 activity (Caspase 1) | "red ring" (contaminating RBC layer) [2]
1 | C[C@H](NC(=O)C(=O)Nc1ccccc1C(C)(C)C)C(=O)N[C@@H](CC(=O)O)C(=O)COc1c(F)c(F)cc(F)c1F [Emricasan, (3S)-3-{[(2S)-2-{[2-(2-tert-butylanilino)-2-oxoacetyl]amino}propanoyl]amino}-4-oxo-5-(2,3,5,6-tetrafluorophenoxy)pentanoic acid] | excellent safety and tolerance profile | suppressed | did not change | suppressed | prevented its upregulation | no reports of serious adverse events | safe and well tolerated | complete resolution | decreases | ⅓ | decrease
2 | CCO[C@@H]1OC(=O)C[C@@H]1NC(=O)[C@@H]1CCCN1C(=O)[C@@H](NC(=O)c1ccc(N)c(Cl)c1)C(C)(C)C [VX765] | – | – | – | did not show a strong similar suppressive effect | – | – | – | – | – | – | –
